Laboratory results: patent US9393216B2, “Vaginal matrices: nanofibers for contraception and prevention of HIV infection” (priority 2012, dated 2016)
Where two headings read alike, the source gives them in different places.

Experiments:
TZM-bl cells = assay: Cytotoxicity in TZM-bl cells (CellTiter Blue); type: cell-based; details: for Cytotoxicity to TZM-bl cells: 48 h exposure to 24 h eluates of PVA fabrics, 20 wt.% theoretical loading
Experimental: TZM-bl cells and HIV-1 BaL isolate are obtained. TZM-bl cells are a HeLa derived cell line that express CD4, CCR5 and CXCR4. Cells re plated in a black 96-well plate at a density of 5,000 cells/well (Corning, Corning, N.Y.) and maintained in Dulbecco's Modified Eagle Medium (DMEM) (Gibco Life Technologies) with 10% fetal bovine serum (Hyclone), 1% 100× penicillin/streptomycin (Invitrogen) and 1% 200 mM L-glutamine. […] Fibers were sterilized by UV irradiation for one hour per side prior to use. Treatments were added at a volume of 50 μL. Cytotoxicity is analyzed using the CellTiter Blue assay (Promega) to assess TZM-bl cell viability after 48 h of exposure to drug eluates from fiber release in cDMEM (24 h release, triplicate wells for each sample). Percent viability is calculated by normalizing to the average of media control wells (n=9). […] Positive control (12.5% DMSO) results in 4.6% viability. Data represents triplicate wells with error bars indicating standard deviation.

[1] = Cumulative release of TFV from PVA fiber meshes at pH 4.3 and pH 7.4; type: physicochemical; details: pH 4.3 and 7.4, small and large scale
Experimental: FIG. 26. Burst release of TFV within 5 minutes at pH 4.3 and 7.4 is similar for meshes electrospun on small scale and large scales. Graphs display cumulative release of TFV in pH 4.3 citrate buffer (a,c) or pH 7.4 PBS (b,d) for fibers spun on small scale versus large scale instruments for pH adjusted and unadjusted solutions.

HIV-1 BaL [2] = details: free (unformulated) drug; as reported previously; read-out: IC50 of free TFV; cited from earlier work
[3] = In vitro release of TFV and LNG from PVA fabrics in 1:1 isopropanol:water; type: physicochemical
Experimental: Drug loading is analyzed by dissolving approximately 5 mg of fibers in 20 mL of a mixture of 1:1 isopropanol:water in a glass vial. Triplicate samples are allowed to dissolve overnight at 37° C. on a rotational shaker and concentration is quantified using a Shimadzu Prominence LC20AD UV-HPLC system. A Phenomenex Luna C18 column (5 μM, 250×4.6 mm) and LC Solutions software are used to analyze samples.
A method for dual analysis of TFV and LNG is developed using the following gradient method using mobile phase A (0.1% formic acid in water) and mobile phase B (acetonitrile). The run consisted of 0-5 minutes 72% mobile phase A, 5-10 minutes ramp to 15% mobile phase A, 10-20 minutes 15% mobile phase A, 20-25 minutes ramp to 72% mobile phase A, 25-30 minutes 72% mobile phase A. The total method time is 30 minutes, with an oven temperature of 30° C., a flow rate of 1 mL/min, and an injection volume of 20 μL. LNG is detected at 238 nm at a retention time of 18.5 minutes. TFV is detected at 259 nm at a retention time of 2.3 minutes.
In vitro release was analyzed in a 1:1 solution of isopropanol:water due to the limited solubility of LNG in water. Sink conditions were maintained throughout the study for both drugs in the release media. Approximately 5 mg of fibers were prepared in triplicate and an appropriate volume of release media was added to maintain sink conditions of 2.6 mg/mL LNG as has been reported. Samples were incubated at 37° C. on a rotational shaker, and 200 μL samples of release media was taken as indicated. Fresh media was added to replace sample volume at each timepoint.

HIV-1 BaL [4] = assay: HIV-1 BaL infection inhibition assay in TZM-bl cells (luciferase); type: cell-based
Experimental: TZM-bl cells and HIV-1 BaL isolate are obtained. TZM-bl cells are a HeLa derived cell line that express CD4, CCR5 and CXCR4. Cells re plated in a black 96-well plate at a density of 5,000 cells/well (Corning, Corning, N.Y.) and maintained in Dulbecco's Modified Eagle Medium (DMEM) (Gibco Life Technologies) with 10% fetal bovine serum (Hyclone), 1% 100× penicillin/streptomycin (Invitrogen) and 1% 200 mM L-glutamine. […] Fibers were sterilized by UV irradiation for one hour per side prior to use. Treatments were added at a volume of 50 μL. […] Percent viability is calculated by normalizing to the average of media control wells (n=9). For composite fabrics, the drug concentration shown applies to both the amount of LNG and of TFV (1:1 ratio). […] Data represents triplicate wells with error bars indicating standard deviation.
Inhibition of infectious activity is quantified by measuring luminescence on a plate reader (Tecan). IC50 values of drug compounds re estimated using sigmoidal regression in Graphpad Prism, version 5.0.
TZM-bl cells and HIV-1 BaL isolate re obtained from the NIH AIDS Research and Reference Reagent Program, Division of AIDS, NIAID, NIH (http://www.aidsreagent.org/). TZM-bL cells, a derived HeLa cell line that expresses CD4, CCR5, and CXCR4, were added to black 96-well plates (Corning, Corning, N.Y.) with Dulbecco's Modified Eagle Medium (DMEM) (Gibco Life Technologies) with 10% fetal bovine serum (Hyclone), 1% 100× penicillin/streptomycin (Invitrogen), and 1% 200 mM L-glutamine (Invitrogen) with […] at a density of 5,000 cells/well. […] Fibers re sterilized by UV irradiation for 2 h (1 h per side). Treatments were added in […]. For the HIV-infectious inhibition assay, […] (240 TCID/well) are added to wells 1 h after drug treatment. […] Infectious activity is quantified by measuring luminescence on a plate reader (Tecan).
TZM-bl cells and HIV-1 BaL isolate re obtained from the NIH AIDS Research and Reference Reagent Program, Division of AIDS, NIAID, NIH (http://www.aidsreagent.org/). TZM-bL cells, a derived HeLa cell line that expresses CD4, CCR5, and CXCR4, are added to black 96-well plates (Corning, Corning, N.Y.) with Dulbecco's Modified Eagle Medium (DMEM) (Gibco Life Technologies) with 10% fetal bovine serum (Hyclone), 1% 100× penicillin/streptomycin (Invitrogen), and 1% 200 mM L-glutamine (Invitrogen) with 50 μL/well at a density of 5,000 cells/well. […] Treatments are diluted serially and randomly assigned to treatments A-E. A second operator, blinded to the identity of the treatments, added each in 50 μL volumes into duplicate wells (n=1 was used for PVP (D) and PEO Tween 20 (E) formulations only due to space limitations on the 96-well plate). 100 μL of HIV-BaL (240 TCID/well) was added to wells 1 h after drug treatment. […] Infectious activity was quantified by measuring luminescence on a plate reader (Tecan).

[5] = test system: human sperm in whole semen; assay: Sperm viability assay (Trypan blue); type: cell-based
Experimental: (§1) Sperm is obtained from two donors for sperm motility experiments. A third donor is recruited for sperm viability assays with glycerol monolaurate. Swim out sperm are obtained as described previously. Briefly, one can place 0.5 mL aliquots of semen below 3 mL of Ham's F-10 media (Sigma-Aldrich) with 0.5% human serum albumin (Sigma-Aldrich) for 75 min in 5% CO2 and 37° C. The aspirate, enriched for motile sperm, was centrifuged at 300 RCF for five min and resuspended in fresh Ham's F-10 to a concentration of 20×10^6 sperm/mL. The effect of drug dilutions on sperm motility are performed both in whole semen and in swimout sperm by adding […] of sperm and drugs to a slide and observing sperm motility with phase contrast either at 200× and 37° C. (ECLIPSE Ti, Nikon), or by adding 200 […] and quantifying sperm motility with computer aided motility analysis for up to 7 min after the addition of drug. Multiple media only controls are run to ensure that any observed change in motility was minimally dependent upon time since ejaculation. Sperm viability was measured by adding 20 […] of Trypan blue (Sigma-Aldrich) and counting 100 live or dead sperm based on head staining after a 10 min incubation using brightfield microscopy.

human swim-out sperm = assay: Sperm motility assay; type: cell-based; details: for Inhibition of sperm function: motility of purified (swim-out) human sperm
Experimental: as §1

[6] = Drug stability in fibers stored at room temperature; type: physicochemical; details: PLLA/PEO meshes, at least five months
Experimental: Plates were then digitized using a scanner. Drug loading and stability is measured using fibers stored at room temperature (19-22° C.) for at least five months. […] UV-HPLC is used to quantify amount of drug in samples as previously described. Encapsulation efficiency is calculated as the amount of drug in drug-loaded fibers relative to the amount of drug detected in dissolved blank fibers spiked at 1% (wt/wt) drug loading.

[7] = DPV release from PVP and EC fibers; type: physicochemical
HIV = details: cited from earlier work
[8] = single-drug PVA fibers, calculated for assumed 500 mg of fabric
[9] = Human immunodeficiency virus 1, BAL, TZM-bl, read-out: Final ARV drug concentration at IC50, drugs released from EC fibers (sustained)
[10] = Human immunodeficiency virus 1, BAL, TZM-bl, read-out: Final ARV drug concentration at IC50, drugs released from PVA fibers (pericoital)

Q: What does the source list for `C[C@H](Cn1cnc2c(N)ncnc21)OCP(=O)(O)O` [TFV, tenofovir]?
A: Cytotoxicity to TZM-bl cells (TZM-bl cells): not; Time of burst release of TFV [1]: ≤ 5 min; IC50 (HIV-1 BaL [2]): 1800 nM; Cumulative mass of drug released after 15 minutes [3, 8]: ~40 mg; Cumulative mass of drug released after 60 minutes [3, 8]: ~60 mg; Time to 100% TFV release ([3]; single-drug or 1:1 TFV:LNG PVA fabrics, 20 wt.% theoretical loading): ≤ 30 min

Q: What does the source list for `Cc1cc(C#N)cc(C)c1Oc1nc(Nc2ccc(C#N)cc2)nc(N)c1Br` [ETR, etravirine]?
A: IC50 (HIV-1 BaL [4]; [9]): 2.7 nM; IC50 (HIV-1 BaL [4]; [10]): 0.7 nM

Q: Which results are given for maraviroc [MVC]?
A: IC50 (HIV-1 BaL [4]; drugs released from EC fibers (sustained), read-out: Final ARV drug concentration at IC50): 4.2 nM; IC50 (HIV-1 BaL [4]; drugs released from PVA fibers (pericoital), read-out: Final ARV drug concentration at IC50): 1.6 nM; IC50 (HIV-1 BaL [4]; eluates released from PLLA/PEO fibers, read-out: IC50, drug eluted from fibers): 2.3 nM; Globally shared best fit IC50 (HIV-1 BaL [4]; pure maraviroc and maraviroc released from PVP/PEO electrospun formulations): 6.96 ng/mL; IC50 (HIV-1 BaL [4]; pure maraviroc and maraviroc released from PVP/PEO electrospun formulations, read-out: Globally shared best fit IC50): 13.5 nM; IC50 (HIV-1 BaL [4]; unformulated, read-out: IC50, unformulated drug): 0.9 nM

Q: With `CCCCCCCCCCCC(=O)OCC(O)CO` (centres unmarked) [GML, glycerol monolaurate] as the compound, how does the “Reduction of sperm viability” value ([5]; 5% (wt/vol)) read?
A: Its value is 33.1%.

Q: And the “Reduction of sperm viability” value ([5]; concentration not given)?
A: Its value is 19.6%.

Q: And the “Concentrations that inhibited sperm motility (complete spermiostasis)” value (human swim-out sperm)?
A: The value was 0.05-0.5 % (wt/vol).

Q: What about the “EC50, reduction of sperm motility” value (human swim-out sperm; at 2 min) of the same compound?
A: Its value is 0.005 % wt/vol.

Q: What about the “Lowest concentration with reduction in motility” value (human swim-out sperm; no complete spermiostasis) of the same compound?
A: The value was ≥ 0.00005 % (wt/vol).

Q: Which “Inhibition of sperm function” value (human swim-out sperm) does the source give for ferrous D-gluconate [FeGluc] here?
A: The value was “ineffective”.

Q: For `C[S+](C)[O-]` [DMSO], which “Viability, positive control” value (TZM-bl cells) is on record?
A: The value was 4.6%.

Q: For methyl-β-cyclodextrin [MBCD], which “Inhibition of sperm function” value (human swim-out sperm) is on record?
A: The value was “ineffective”.

Q: With `Cc1cn([C@H]2C[C@H](N=[N+]=[N-])[C@@H](CO)O2)c(=O)[nH]c1=O` [AZT, 3′-azido-3′-deoxythymidine] as the compound, how does the “Toxicity to TZM-bL cells” value (TZM-bl cells; compared with media controls) read?
A: The value was “nontoxic”.

Q: What about the IC50 (HIV-1 BaL [4]; Human immunodeficiency virus 1, BAL, TZM-bl, read-out: IC50, drug eluted from fibers) of the same compound?
A: The IC50 was 84 nM.

Q: And the IC50 (HIV-1 BaL [4]; Human immunodeficiency virus 1, BAL, TZM-bl, read-out: IC50, unformulated drug)?
A: The IC50 was 120 nM.

Q: What about the “Initially-loaded drug detected in stored fiber meshes” value [6] of the same compound?
A: Its value is 0.95%.

Q: With `C#C[C@]1(O)CC[C@H]2[C@@H]3CCC4=CC(=O)CC[C@@H]4[C@H]3CC[C@@]21CC` [LNG, levonorgestrel] as the compound, how does the “Cytotoxicity to TZM-bl cells” value (TZM-bl cells) read?
A: The value was “induced by high concentrations”.

Q: For `Cc1nnc(C(=O)NC(C)(C)c2nc(C(=O)NCc3ccc(F)cc3)c(O)c(=O)n2C)o1` [RAL, raltegravir], which IC50 (HIV-1 BaL [4]; [9]) is on record?
A: Its IC50 is 3.8 nM.

Q: And the IC50 (HIV-1 BaL [4]; [10])?
A: Its IC50 is 1.2 nM.

Q: What does the source list for `Cc1cc(C)c(Nc2ccnc(Nc3ccc(C#N)cc3)n2)c(C)c1` [DPV, dapivirine]?
A: DPV release characteristics ([7]; from EC fibers): sustained release; DPV release characteristics ([7]; from PVP fibers): burst-release; Duration of prevention of localized and disseminated infection posttreatment (HIV): ≤ 6 days
